Assay results taken from PubChem BioAssay AID1996.
Converted amounts (≈) assume the structure as drawn.

Conditions: buffer; pH 7.4; 200.0 µM

Row | Structure (SMILES) | solubility kinetic [µg/mL]
1 | CC1(C)C(=O)N(c2ccccc2F)C(=O)c2ccccc21 | 37.2 (≈ 131 µM)
2 | CCOC(=O)Cc1csc(NC(=O)CCCC(=O)O)n1 | > 45
3 | Cn1c(/C=C/c2ccc(Cl)cc2)c([N+](=O)[O-])c(=O)n(C)c1=O | 5 (≈ 15.5 µM)
4 | CC(C)(C)NC(=O)CSc1nc(N)cc(=O)[nH]1 | > 38.4
5 | Cc1ccccc1C(C)NS(=O)(=O)c1ccc2c(c1)OCCO2 (stereo not given) | > 50
6 | CN(Cc1ccccc1)S(=O)(=O)c1ccc2c(c1)n(C)c(=O)c(=O)n2C | 1.4 (≈ 3.75 µM)
7 | NCC1(CC(=O)O)CCCCC1 | > 25.7
8 | COc1cc(/C=C/C(=O)OC(C)C(=O)Nc2ccc(Cl)cn2)ccc1OC(F)F (stereo not given) | 2.8 (≈ 6.56 µM)
9 | Cc1ccc2c(c1)cc(C(=O)N1CCN(c3ccccn3)CC1)n2C | 2.1 (≈ 6.28 µM)
10 | Cc1cccc(-n2c(SCC(N)=O)nnc2-c2ccco2)c1 | > 47.2
11 | Cc1cccc(C)c1NC(=S)NCc1ccccc1 | > 40.6
12 | C=Cn1cc[n+](CC(=O)c2ccc(OC)cc2)c1.[Br-] | 45.2
13 | S=C(NCCNC(=S)Nc1ccccc1)Nc1ccccc1 | 9.4 (≈ 28.4 µM)
14 | Cc1ccc(S(=O)(=O)CCC(=O)Nc2sccc2C(N)=O)cc1 | > 52.9
15 | CCOc1ccc(NC(=O)C2CCCN(S(C)(=O)=O)C2)cc1 (stereo not given) | 4.1 (≈ 12.6 µM)
16 | CC1CCC(N(CCCN)Cc2ccco2)CC1C (stereo not given) | 31.6 (≈ 120 µM)
17 | Cc1cc(Br)ccc1N=C1NC(=O)CS1 | > 42.8
18 | Cc1cccc(NC(=O)CC2(CC(=O)O)CCCC2)c1 | 41.2 (≈ 150 µM)
19 | COc1ccccc1CN(C)C(=O)COC(=O)c1c(C)noc1C | > 49.9
20 | O=C(COC(=O)c1cccc(Br)c1)NCCC1=CCCCC1 | 2.5 (≈ 6.83 µM)

Row | Structure (SMILES) | solubility kinetic [µg/mL]
21 | Oc1ccc(Nc2nc(-c3cccnc3)cs2)cc1 | 0.8 (≈ 2.97 µM)
22 | O=c1[nH]c2ccc(Cl)cc2c(-c2ccccc2)c1[N+](=O)[O-] | < 0.3
23 | COC(=O)C(C(=O)OC)c1ncc(C(F)(F)F)cc1Cl | 41.1 (≈ 132 µM)
24 | O=C(N/N=C/c1cc(Cl)cc([N+](=O)[O-])c1O)C1CC1 | > 42.6
25 | O=C1NCCCCC1NS(=O)(=O)c1ccccc1 (stereo not given) | > 40.2
26 | O=C(NCc1ccccc1)c1ccc(Cl)c(S(=O)(=O)N2CCCC2)c1 | 33.9 (≈ 89.5 µM)
27 | Cc1ccc(CN(C)C(=O)c2ccccc2Sc2ccccc2C#N)cc1 | 14.7 (≈ 39.5 µM)
28 | O=C(COc1ccccc1F)Nc1ccc2[nH]c(=O)[nH]c2c1 | 4.5 (≈ 14.9 µM)
29 | Cc1ccc2cc(NC(=O)c3cccc(F)c3)ccc2n1 | 28.6 (≈ 102 µM)
30 | CN(C)S(=O)(=O)c1cccc(C(=O)Nc2ccc(C(=O)Nc3cccc(S(N)(=O)=O)c3)cc2)c1 | 9 (≈ 17.9 µM)
31 | OCCC1CN(Cc2cccc(O)c2)CCN1CCc1ccccc1 (stereo not given) | 50.8 (≈ 149 µM)
32 | CC1CC2(C)CC(C)C1(COC(=O)Nc1ccccc1)CO2 (stereo not given) | 44.6 (≈ 147 µM)
33 | COc1ccc(CNC(=O)COc2ccc(F)cc2)cc1 | > 43.4
34 | COc1ccc(CCNCC(=O)Nc2ccc(OC(F)F)cc2)cc1 | 34.4 (≈ 98.2 µM)
35 | CC(=O)NCCC(=O)Nc1nc(-c2c[nH]c3ccccc23)cs1 | 42.9 (≈ 131 µM)
36 | Cn1c(=O)c2cc3ccccc3nc2n(C)c1=O | 4.3 (≈ 17.8 µM)
37 | O=C(COC(=O)c1ccc(Cl)nc1)NC1CCCCCC1 | > 46.6
38 | O=C(Nc1ccc(Cl)cc1F)C1CC1c1ccccc1 (stereo not given) | 1.4 (≈ 4.83 µM)
39 | O=C(CNC(=O)c1ccco1)N/N=C/c1ccc(O)cc1O | > 45.5
40 | CCC(C)C(=O)Nc1nc2ccc(OC)cc2s1 (stereo not given) | > 39.7

Row | Structure (SMILES) | solubility kinetic [µg/mL]
41 | O=C(NC(=S)Nc1ccc(O)cc1)c1cncc(Br)c1 | > 52.8
42 | COc1ccc(/C=C/c2ccc3cccc(O)c3n2)cc1Br | < 0.8
43 | CCCC(=O)c1cc2c(cc1NC(=O)c1ccccc1F)OCCO2 | < 0.7
44 | CSc1ccc(CN(C)CC(=O)NCc2ccccc2)cc1 | 41 (≈ 130 µM)
45 | CC(C)(C)NC(=O)CN(Cc1ccccc1)S(=O)(=O)c1ccccc1 | 38.7 (≈ 107 µM)
46 | Cc1cccc(/C=C(\C(=O)O)c2ccc(S(=O)(=O)N3CCCC3)s2)c1 | > 56.6
47 | CCOC(=O)NC1Cc2ccccc2C1Sc1ccccn1 (stereo not given) | 44.8 (≈ 142 µM)
48 | CC1N=C(c2ccccc2)c2cc(Br)ccc2NC1=O (stereo not given) | > 49.4
49 | Cc1cccc(C(=O)OCC(=O)NC(=O)c2ccccc2)c1O | < 0.7
50 | Cc1ccc(C(=O)NCCCNC(=O)COc2ccc(Cl)cc2)cn1 | 49.7 (≈ 137 µM)
51 | Cc1ccc(S(=O)(=O)NC(Cc2ccccc2)C(=O)O)cc1 (stereo not given) | > 47.9
52 | CCOc1ccc(CC(=O)N/N=C(\C)c2cccnc2)cc1 | > 44.6
53 | O=C(CN1C(=O)c2ccccc2C1=O)Nc1cccc(Cl)c1 | 21.2 (≈ 67.4 µM)
54 | CCOC(=O)C1=C(C)N(C)C(=O)NC1c1ccc2c(c1)OCO2 (stereo not given) | > 47.7
55 | CC(=O)C1C(c2ccc([N+](=O)[O-])cc2)c2c(noc2C)CC1(C)O (stereo not given) | > 49.6
56 | Cc1cc(=O)c2cc(Br)ccc2n1CC(=O)NCc1ccccc1 | 1.3 (≈ 3.37 µM)
57 | NC(=O)C1CCN(c2nc3ccccc3nc2NS(=O)(=O)c2ccc(Br)cc2)CC1 | 53.9 (≈ 110 µM)
58 | Cc1nc(-c2ccccn2)sc1C(=O)O | > 33
59 | COC(=O)c1sccc1NC(=O)Nc1ccccc1OC | 40 (≈ 131 µM)
60 | Cc1ccccc1N1C(=O)CC2(CCCC2)CC1=O | 37.2 (≈ 145 µM)
